Results from patent publication US7071168B2, “Anti-cancer compounds and methods related thereto” (The Regents of the University of Colorado, priority 1998, dated 2006).

How the values were obtained:
[1] = test system: SCLC strain SHP-77; experiment: Colorimetric tetrazolium (MTT) assay for cell survival, SCLC strain SHP-77; type: cell-based, human
In short: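 MTT assay: cells seeded overnight, treated in triplicate across a concentration range for 4 days at 37 °C, 5% CO2. On day 5, MTT was added for 4 h; formazan was dissolved in acidified isopropanol and absorbance read.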

[2] = test system: bradykinin response of isolated guinea pig ileum; experiment: Anti-bradykinin activity on isolated guinea pig ileum
In short: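 Bradykinin concentration-effect curves were run in the absence and presence of compound. Tissue: 25 mm terminal ileum from male Hartley guinea pigs fasted overnight, held at 1 g tension in O2/CO2-bubbled Krebs' solution after 1 h equilibration.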

[3] = Table 1, higher numbers indicate higher potency

Substance	MTT: ED50 for killing of SCLC strain SHP-77 in vitro ([1]; Table 1, SHP-77, MTT, 4 days)	GPI: pA2 for bradykinin antagonist activity on isolated guinea pig ileum [2, 3]	also measured
(Dns-DArg-Igl-Arg)2-DDA [M678]	–	–	MTT: ED50 for killing of SCLC strain SHP-77 in vitro ([1]; SCLC strain SHP-77 in vitro): 1.1 µM; GPI: pA2 for bradykinin antagonist activity on isolated guinea pig ileum ([2]; isolated guinea pig ileum, pD2 of bradykinin is 7.4, higher numbers indicate higher potency): 5.3
(Gun)2-BApG-DArg-Arg-Pro-Hyp-Gly-Igl-Ser-DIgl-Oic-Arg [B10092]	>20 µM	8.7	–
Aaa-DPhe-hPhe-Arg [M754]	Inact	4.6	–
Ac-Darg-Arg-Aud-DF5F-Oic-Arg [M868]	55 µM	6.5	–
Aca-c[DArg-Arg-Pro-Hyp-Gly-Thi-Ser-Nig-Oic-Arg] [B10304]	–	–	MTT: ED50 for killing of SCLC strain SHP-77 in vitro ([1]; Table 3, cyclic peptides): Inact; GPI: pA2 for bradykinin antagonist activity on isolated guinea pig ileum ([2]; Table 3, cyclic peptides): 6.4
Ava-Igl-Ser-DF5F-Oic-Arg [M806]	Inact	5.6	–
BApG-DArg-Arg-Pro-Hyp-Gly-Igl-Ser-DIgl-Oic-Arg [B10084]	>20 µM	8.1	–
D-Arg-Arg-Aud-PaF(F5c)-Arg [M726]	Inact	5.6	–
DArg-Arg-Pro-Hyp-Gly-Igl-Ser-DIgl-Oic-Arg-Eac-Eac-DArg-Arg-Pro-Hyp-Gly-Igl-Ser-DIgl-Oic-Arg [B10088]	4 µM	7.1	–
DArg-Arg-Pro-Hyp-Gly-Igl-Ser-DIgl-Oic-Arg-NH2 [B10062]	Inact	7.1	–
DDD-( DArg-Arg-Add-Ser-DIgl-Oic-Arg)2 [M862]	1.3 µM	5.6	–
DDD-(DArg-2Nal-Arg)2 [M508]	23 µM	Inact	–
DDD-(DArg-Arg-Add-Ser-DIgl-PFF-Arg)2 [M864]	1.8 µM	Inact	–
DDD-(DArg-Arg-Aud-DF5F-Oic-Arg)2 [M846]	2 µM	7.1	–
DDD-(DArg-Arg-Aud-DIgl-PFF-Arg)2 [M842]	1.4 µM	Inact	–
DDD-(DArg-Arg-Aud-DTic-Oic-Arg)2 [M790]	1.7 µM	Inact	–
DDD-(DArg-Arg-Aud-DTic-hPhe-Arg)2 [M770]	8 µM	Inact	–
DDD-(DArg-Arg-Aud-PaF(F5c)-Arg)2 [M728]	4 µM	5.3	–
DDD-(DArg-Arg-Aud-Pac-PaF(Fbz)-Arg)2 [M734]	1.8 µM	5.3	–
DDD-(DArg-Arg-Aud-Ser-DF5F-Oic-Arg)2 [M890]	1.7 µM	5.5	–
DDD-(DArg-Arg-Aud-Ser-DIgl-Oic-Arg)2 [M858]	4 µM	6.3	–
DDD-(DArg-Arg-Eac-Ser-DF5F-Oic-Arg)2 [M804]	7.3 µM	7.7	–
DDD-(DArg-Arg-Eac-Ser-DIgl-Oic-Arg)2 [M854]	7.3 µM	5.9	–

Substance	MTT: ED50 for killing of SCLC strain SHP-77 in vitro ([1]; Table 1, SHP-77, MTT, 4 days)	GPI: pA2 for bradykinin antagonist activity on isolated guinea pig ileum [2, 3]	also measured
DDD-(DArg-Arg-Eac-Ser-DTic-Oic-Arg)2 [M794]	21 µM	Inact	–
DDD-(DArg-F5F-DArg)2 [M1036]	40 µM	5.4	–
DDD-(DArg-PFF-Arg)2 [M820]	43 µM	Inact	–
DDD-(DIgl-hPhe-Arg)2 [M776]	30 µM	5	–
DDD-(DPhe-hPhe-Arg)2 [M756]	18 µM	5.2	–
DDD-(Eac-Eac-Arg-DIgl-Oic-Arg)2 [B10200]	16 µM	5.8	–
DDD-(Lys-Ser-DF5F-Oic-Arg)2 [M808]	30 µM	6.9	–
DDD-(Pac-2Nal-DArg-NH2)2 [M504]	11 µM	5.4	–
DDD-(Pac-hPhe-Arg)2 [M746]	Inact	Inact	–
DDD-(p-ABz-hPhe-Arg)2 [M552]	Inact	Inact	–
DTP-(DArg-Arg-Eac-Ser-DF5F-Nc7G-Arg)2 [M1026]	70 µM	6.9	–
Dcg-F5F-Arg [M130]	20 µM	4.8	–
Dpa-PFF-Arg [M816]	52 µM	4.6	–
EGS-(DArg-Arg-Eac-Ser-DF5F-Nc7G-Arg)2 [M1030]	51 µM	7.0	–
EGS-(DArg-Arg-Pro-Hyp-Gly-Igl-Ser-DIgl-Oic-Arg)2 [B10252]	25 µM	8.3	–
F5c-DArg-Arg-Add-Ser-DIgl-Oic-Arg [M860]	6 µM	5.4	–
F5c-DArg-Arg-Aud-DIgl-PFF-Arg [M838]	7.4 µM	5.1	–
F5c-DArg-Arg-Aud-DIgl-hPhe-Arg [M774]	8 µM	Inact	–
F5c-DArg-Arg-Aud-DTic-Oic-Arg [M788]	9 µM	5	–
F5c-DArg-Arg-Aud-Ser-D5F5-Oic-Arg [M888]	12.5 µM	6.6	–
F5c-DArg-Arg-Aud-Ser-DIgl-Oic-Arg [M856]	21 µM	5.4	–
F5c-DArg-Arg-Eac-Ser-DF5F-Oic-Arg [M796]	31 µM	6.5	–
